# Assay results: patent publication US20230256011A1, “Chlorite In the Treatment of Acute Respiratory Distress Syndrome” (The Regents of the University of California, priority 2020, published 2023)
# Values joined by “and” are separate entries in the source; they are usually repeats but may differ in a detail not shown here. Equal values may be shown once.
# Assays:
# [1] = test system: blood derived macrophages (CD16 on CD14 cells); settings: +30 µM, +100 µM, +300 µM, three days, 5 donors, FIG. 2
# Experimental: Cells were then processed for flow cytometry (5 separate donors) and CD14 cell co-expression of CD16 (macrophage activation marker) was scored.
# Percentage of control median CD16 was calculated for all 5 donors +/- SD.
# [2] = test system: Blood derived macrophages from ALS patients; settings: 300uM overnight, two ALS patients, FIG. 3
# Description: The maj or focus was on regulation of inflammation as compared to normal macrophage functional genes. […] Note that by “housekeeping genes” is meant B2M, HPRT1, RPL13A, GAPDH, and ACTB.
# ALS blood monocytes [3] = settings: 3 days
# Experimental: Culture supernatants are harvested and osteopontin levels (OPN) are determined by ELISA.
# Repeated with 3 normal and 5 ALS donors.
# Normal blood macrophages = settings: 150uM, three days, three donors
# ALS blood monocytes [4] = settings: 300uM, 3 days, FIG. 4
# Experimental: Culture supernatants were harvested and cytokine levels were determined by ELISA. […] Referring to the Y-axis, percentage of reduction is the level of factor in treated as compared to untreated macrophages. N is 8-18 in several experiments.
substance,measurement,setting,value
sodium chlorite [sodium chlorite formulation],CD16 expression on CD14+ (monocyte lineage) cells,[1],dose dependent down regulation of CD16
same,CCL16 gene expression,[2],clear down regulation
same,CCR2 gene expression,[2],clear down regulation
same,CXCL9 gene expression,[2],clear down regulation
same,CXCL10 gene expression,[2],clear down regulation
same,IL-18 gene expression (inflammasome activation),[2],clear down regulation
same,TLR4 gene expression,[2],clear down regulation
same,production of OPN from ALS patient macrophages (ELISA),"ALS blood monocytes [3]; 150uM, FIG. 6 panel A",inhibit production of OPN
same,SPP1 (osteopontin) gene expression,"ALS blood monocytes [3]; dose response, FIG. 6 panel B",inhibits SPP1 (osteopontin) gene expression in a dose-dependent manner
same,CCR3 gene down regulated,Normal blood macrophages,3 X
same,CXCL9 gene down regulated,Normal blood macrophages,14 X
same,SERPINB2 gene upregulated,Normal blood macrophages,4 X
same,"production of secreted inflammatory factors (IL-1Ra, CD163, CD14, OPN)",ALS blood monocytes [4],inhibits production
same,"Chlorite % Reduction of factor in vitro, MIG",COVID19 blood monocytes,88% and 70%
same,"Chlorite % reduction of factor in vitro, IP10",COVID19 blood monocytes,95% and 80%
same,down regulation of HGF,COVID19 blood monocytes,greater than 50%
same,down regulation of IL1Ra,COVID19 blood monocytes,greater than 50%
same,down regulation of IP10 (CXCL10),COVID19 blood monocytes,greater than 50%
same,down regulation of MIG (CXCL9),COVID19 blood monocytes,greater than 50%
same,down regulation of OPN,COVID19 blood monocytes,greater than 50%
same,down regulation of sCD163 (CD163),COVID19 blood monocytes,greater than 50%
same,"production of COVID-19 patient macrophage produced disease factors (IL-1Ra, IP-10, HGF, MIG, sCD163, OPN) as compared to controls",COVID19 blood monocytes,downregulated production
